Source: BindingDB's records for doi:10.1021/acs.jmedchem.5b00801 (Duquesne University, 2015)

Columns and labels:
[1] = Binding affinity to human FRbeta expressed in Chinese hamster D4 cells assessed as cell growth inhibition after 96 hrs by CellTiter-Blue assay
[2] = Binding affinity to human FRalpha expressed in Chinese hamster RT16 cells assessed as cell growth inhibition after 96 hrs by CellTiter-Blue assay
[3] = Binding affinity to human FRalpha expressed in Chinese hamster RT16 cells assessed as cell growth inhibition after 96 hrs by CellTiter-Blue assay in presence of 200 nM folic acid
[4] = Binding affinity to human FRbeta expressed in Chinese hamster D4 cells assessed as cell growth inhibition after 96 hrs by CellTiter-Blue assay in presence of 200 nM folic acid
[5] = Binding affinity to human RFC expressed in Chinese hamster PC43-10 cells assessed as cell growth inhibition after 96 hrs by CellTiter-Blue assay
[6] = Binding affinity to human PCFT expressed in Chinese hamster R2/PCFT4 cells assessed as cell growth inhibition after 96 hrs by CellTiter-Blue assay

Nc1nc2[nH]c(CCCc3cc(C(=O)N[C@@H](CCC(=O)O)C(=O)O)cs3)cc2c(=O)[nH]1
IC50 [1]: 0.1 nM
IC50 [2]: 0.61 nM
IC50 [3]: 506 nM
IC50 [4]: 654 nM
IC50 [5]: 189 nM
IC50 [6]: 6.5 nM

Nc1nc(N)c2c(CCCc3cc(C(=O)N[C@@H](CCC(=O)O)C(=O)O)cs3)coc2n1
IC50 [1]: 54 nM
IC50 [4]: > 1000 nM
IC50 [5]: > 1000 nM
IC50 [6]: > 1000 nM
